Where two headings read alike, the source gives them in different places.
Columns and labels:
[1] = system: MCF-10A normal breast cells; assay: MTT cytotoxicity assay on MCF-10A; format: cell-based; settings: Homo sapiens, 48 h, n = 3, read-out: IC50 ± SD, MCF-10A
Procedure: (§1) Both breast cancer (MCF-7) and normal breast (MCF-10A) cells were purchased from National Research Institute, Egypt, and maintained in complete media of RPMI-1640 medium L-Glutamine (Lonza Verviers SPRL, Belgium, cat#12-604F). Cells were incubated following standard tissue culture work. Cell viability was measured 48 h later, utilizing MTT colorimetric assay (Promega, Madison, WI, USA). Absorbance was consequently assessed (at 570 nm) using an ELISA microplate reader (BIO-RAD, model iMark, Tokyo, Japan). Using GraphPad Prism 7, the IC50 values were determined, and the viability at each concentration was determined in comparison to the control.

MCF-7 cancer cells = assay: MTT cytotoxicity assay on MCF-7; format: cell-based; settings: MTT assay, 48 h, n = 3, NA: Non-Active, read-out: IC50 ± SD, MCF-7
Procedure: as §1

EGFR Kinase = molecular target: T1, EGFR Kinase (Homo sapiens, UniProt P00533); assay: EGFR Kinase Assay Kit (BPS Bioscience); format: biochemical; settings: mean ± SD of three replicates, five concentrations
T1 construct: purchased BPS Bioscience 40321
Procedure: (§2) Compounds’ autophosphorylation percentage inhibition was computed according to the following equation: […] , then IC50 values were calculated using GraphPad prism software.

HER2 Kinase = molecular target: T2, HER2 Kinase (Homo sapiens, UniProt P04626); assay: HER2 Kinase Assay Kit (BPS Bioscience); format: biochemical; settings: mean ± SD of three replicates, five concentrations
T2 construct: purchased BPS Bioscience 40721
Procedure: as §2

[2] = system: breast cancer cells MCF-7; settings: cited from earlier work
[3] = format: in vivo; settings: 10 mg/kg BW, IP; MCF-7 control 32.28 g, normal 24.5 g
From the text: In vivo experiments for lethal dose (LD50), experimental design, tumor mass, blood parameters, histopathological examinations were accomplished as previously described. After inoculating the tumor cells, masses of the solid tumor started to appear ten days later. […]. Animals from each group were sacrificed, and their blood was drawn to measure hemoglobin (Hb), red blood cell (RBC), white blood cell (WBC), and liver enzymes (ALT, AST, albumin, and total protein) levels.

[4] = reported pyrazoline-based agents

T2 sequence (P04626 23-1255): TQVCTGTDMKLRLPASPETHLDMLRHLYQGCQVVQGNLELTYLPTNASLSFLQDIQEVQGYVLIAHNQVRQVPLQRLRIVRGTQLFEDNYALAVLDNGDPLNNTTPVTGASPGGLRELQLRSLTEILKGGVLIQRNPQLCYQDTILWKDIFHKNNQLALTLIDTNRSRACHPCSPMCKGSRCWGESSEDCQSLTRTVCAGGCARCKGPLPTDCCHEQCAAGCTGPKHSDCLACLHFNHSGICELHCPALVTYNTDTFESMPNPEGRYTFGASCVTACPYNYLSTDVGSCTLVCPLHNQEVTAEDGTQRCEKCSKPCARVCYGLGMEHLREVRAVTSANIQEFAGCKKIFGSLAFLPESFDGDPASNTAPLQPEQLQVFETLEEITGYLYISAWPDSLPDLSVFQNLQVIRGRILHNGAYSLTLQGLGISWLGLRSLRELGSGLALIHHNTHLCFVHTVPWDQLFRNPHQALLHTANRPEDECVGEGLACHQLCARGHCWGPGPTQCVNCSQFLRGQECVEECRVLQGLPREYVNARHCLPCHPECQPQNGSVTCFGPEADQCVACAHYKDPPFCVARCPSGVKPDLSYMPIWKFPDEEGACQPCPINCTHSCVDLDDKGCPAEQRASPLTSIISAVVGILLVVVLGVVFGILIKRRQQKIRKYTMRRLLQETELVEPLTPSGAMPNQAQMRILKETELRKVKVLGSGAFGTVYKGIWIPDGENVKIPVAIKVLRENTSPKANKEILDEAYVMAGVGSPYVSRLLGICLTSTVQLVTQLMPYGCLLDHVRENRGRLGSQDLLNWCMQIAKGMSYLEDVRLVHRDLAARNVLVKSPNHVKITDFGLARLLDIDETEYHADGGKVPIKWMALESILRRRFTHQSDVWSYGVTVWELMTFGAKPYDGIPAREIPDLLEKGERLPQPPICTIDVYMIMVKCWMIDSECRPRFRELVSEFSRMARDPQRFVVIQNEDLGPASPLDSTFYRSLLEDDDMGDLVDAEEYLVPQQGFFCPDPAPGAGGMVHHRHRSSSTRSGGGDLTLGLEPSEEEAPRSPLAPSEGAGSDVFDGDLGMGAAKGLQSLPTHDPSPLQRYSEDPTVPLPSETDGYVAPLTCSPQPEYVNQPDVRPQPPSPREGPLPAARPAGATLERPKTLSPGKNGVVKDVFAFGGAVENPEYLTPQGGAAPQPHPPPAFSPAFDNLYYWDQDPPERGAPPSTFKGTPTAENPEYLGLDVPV
T1 sequence (P00533 25-1210): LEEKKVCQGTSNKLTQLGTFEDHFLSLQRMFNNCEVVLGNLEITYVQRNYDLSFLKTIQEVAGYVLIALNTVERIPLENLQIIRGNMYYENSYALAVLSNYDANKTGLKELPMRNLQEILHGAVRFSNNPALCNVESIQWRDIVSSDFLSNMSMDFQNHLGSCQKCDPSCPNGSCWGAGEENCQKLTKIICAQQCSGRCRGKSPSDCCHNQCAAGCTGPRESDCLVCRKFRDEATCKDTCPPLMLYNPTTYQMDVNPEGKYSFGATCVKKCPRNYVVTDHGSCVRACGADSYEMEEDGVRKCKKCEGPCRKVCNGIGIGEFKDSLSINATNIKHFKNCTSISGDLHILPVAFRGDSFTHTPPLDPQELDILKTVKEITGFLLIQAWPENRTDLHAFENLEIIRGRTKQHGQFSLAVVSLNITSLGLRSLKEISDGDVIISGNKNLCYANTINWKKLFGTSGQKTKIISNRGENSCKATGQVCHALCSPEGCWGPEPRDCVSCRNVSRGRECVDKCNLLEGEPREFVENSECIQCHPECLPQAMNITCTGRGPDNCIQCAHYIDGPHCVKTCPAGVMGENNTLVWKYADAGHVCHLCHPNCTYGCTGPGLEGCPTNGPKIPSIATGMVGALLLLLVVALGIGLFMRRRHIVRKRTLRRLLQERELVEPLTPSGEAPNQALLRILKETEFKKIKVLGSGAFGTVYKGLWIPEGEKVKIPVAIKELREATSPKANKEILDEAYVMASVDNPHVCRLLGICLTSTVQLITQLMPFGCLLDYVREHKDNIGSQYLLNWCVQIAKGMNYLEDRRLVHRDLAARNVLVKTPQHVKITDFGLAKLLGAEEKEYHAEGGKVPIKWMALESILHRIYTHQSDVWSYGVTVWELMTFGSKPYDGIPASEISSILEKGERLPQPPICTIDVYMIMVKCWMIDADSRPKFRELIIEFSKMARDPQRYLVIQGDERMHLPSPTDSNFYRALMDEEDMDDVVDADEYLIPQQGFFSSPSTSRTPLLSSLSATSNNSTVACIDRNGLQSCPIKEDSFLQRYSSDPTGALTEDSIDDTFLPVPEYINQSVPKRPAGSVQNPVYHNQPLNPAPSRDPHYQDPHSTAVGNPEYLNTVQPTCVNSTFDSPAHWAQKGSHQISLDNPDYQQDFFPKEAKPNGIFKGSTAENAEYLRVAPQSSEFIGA

Row | SMILES | melting point [°C] | IC50 [1] [µM] | IC50 (MCF-7 cancer cells; Homo sapiens, MCF7, 48 h) [µM] | other results
1 | COc1ccc(C2=NN(C(N)=S)C(c3ccc(Cl)cc3)C2)cc1OC (stereo not drawn) [Compound 3c, 5-(4-Chlorophenyl)-3-(3,4-dimethoxyphenyl)-4,5-dihydro-1H-pyrazole-1-carbothioamide] | 230 to 232 | ≥ 50 | 11.1 | IC50 (MCF-7 cancer cells): 11.2 ± 0.54 µM; IC50 (EGFR Kinase): 0.067 ± 0.009 µM; IC50 (HER2 Kinase): 0.07 ± 0.018 µM
2 | O=C1c2ccccc2C(=O)N1CCc1csc(N(/N=C/c2cc(Cl)cc(Cl)c2)C(=O)CCl)n1 [V] |  |  |  | IC50 ([2]; reported thiazole-based agent): 9.06 µM
3 | O=C1CCC(=O)N1CC(=O)N1N=C(c2ccccc2)CC1c1ccccc1 (stereo not drawn) [II] |  |  |  | IC50 [2, 4]: 0.42 µM
4 | Cc1nc(Nc2ncc(C(=O)Nc3c(C)cccc3Cl)s2)cc(N2CCN(CCO)CC2)n1 [Dasatinib] |  |  |  | MCF-7 (measure not named) ([2]; Figure 2, reported agent): 17.03 µM
5 | CC(=O)N1N=C(c2ccc(OC3OC4OC5(C)CCC6C(C)CCC(C3C)C46OO5)cc2)CC1c1ccccc1 (stereo not drawn) [I] |  |  |  | GI50 ([2]; reported pyrazoline-based agent): 0.13 µM
6 | COc1ccc2ccc(=O)oc2c1C1=NN(S(=O)(=O)c2ccc(C)cc2)C(c2ccccc2)C1 (stereo not drawn) [III] |  |  |  | IC50 [2, 4]: 34.1 µM
7 | COc1ccc(C2=NN(C(N)=S)C(c3ccccc3)C2)cc1OC (stereo not drawn) [Compound 3a, 3-(3,4-Dimethoxyphenyl)-5-phenyl-4,5-dihydro-1H-pyrazole-1-carbothioamide] | 188 to 190 | 36.5 ± 1.15 |  | 
8 | COc1ccc(C2CC(c3ccc(OC)c(OC)c3)=NN2C(N)=S)cc1 (stereo not drawn) [Compound 3b, 3-(3,4-Dimethoxyphenyl)-5-(4-methoxyphenyl)-4,5-dihydro-1H-pyrazole-1-carbothioamide] | 221 to 223 | 34.8 ± 1.35 | 23.6 ± 0.72 | 
9 | CS(=O)(=O)CCNCc1ccc(-c2ccc3ncnc(Nc4ccc(OCc5cccc(F)c5)c(Cl)c4)c3c2)o1 [Lapatinib, reference compound] |  | ≥ 50 | 7.45 | mice weight [3]: 27.35 g

Now from value to compound, other results behind:

Row | melting point [°C] | SMILES | IC50 [1] [µM] | IC50 (MCF-7 cancer cells; Homo sapiens, MCF7, 48 h) [µM] | other results
10 | 215 to 218 | CCOC(=O)c1sc(N2N=C(c3ccc(OC)c(OC)c3)CC2c2ccccc2)nc1C (stereo not drawn) [Compound 9d, Ethyl 2-(3-(3,4-Dimethoxyphenyl)-5-phenyl-4,5-dihydro-1H-pyrazol-1-yl)-4-methylthiazole-5-carboxylate] | 24.3 ± 1.39 |  | 
11 | 189 to 191 | COc1ccc(C2=NN(c3nc(-c4ccc(C)cc4)cs3)C(c3ccc(Cl)cc3)C2)cc1OC (stereo not drawn) [Compound 6j, 2-(5-(4-Chlorophenyl)-3-(3,4-dimethoxyphenyl)-4,5-dihydro-1H-pyrazol-1-yl)-4-(p-tolyl)thiazole] | ≥ 50 |  | 
12 | 135 to 140 | COc1ccc(C2=NN(c3nc(-c4ccc(F)cc4)cs3)C(c3ccccc3)C2)cc1OC (stereo not drawn) [Compound 6c, 2-(3-(3,4-Dimethoxyphenyl)-5-phenyl-4,5-dihydro-1H-pyrazol-1-yl)-4-(4-fluorophenyl)thiazole] | ≥ 50 | 18.7 ± 0.84 | 
13 | 202 to 205 | COc1ccc(C2=NN(c3nc(-c4ccccc4)cs3)C(c3ccccc3)C2)cc1OC (stereo not drawn) [Compound 6a, 2-(3-(3,4-Dimethoxyphenyl)-5-phenyl-4,5-dihydro-1H-pyrazol-1-yl)-4-phenylthiazole] | ≥ 50 |  | 
14 | 213 to 215 | COc1ccc(C2CC(c3ccc(OC)c(OC)c3)=NN2c2nc(C)c(C(C)=O)s2)cc1 (stereo not drawn) [Compound 9b, 1-(2-(3-(3,4-Dimethoxyphenyl)-5-(4-methoxyphenyl)-4,5-dihydro-1H-pyrazol-1-yl)-4-methylthiazol-5-yl)ethan-1-one] | 26.3 ± 1.07 | 31.7 ± 1.96 | 
15 | 208 to 210 | COc1ccc(C2=NN(c3nc(-c4ccccc4)cs3)C(c3ccc(Cl)cc3)C2)cc1OC (stereo not drawn) [Compound 6i, 2-(5-(4-Chlorophenyl)-3-(3,4-dimethoxyphenyl)-4,5-dihydro-1H-pyrazol-1-yl)-4-phenylthiazole] | 15.8 ± 1.08 | 45.4 ± 1.87 | 
16 | 215 to 218 | COc1ccc(C2=NN(c3nc(C)c(C(C)=O)s3)C(c3ccc(Cl)cc3)C2)cc1OC (stereo not drawn) [Compound 9c, 1-(2-(5-(4-Chlorophenyl)-3-(3,4-dimethoxyphenyl)-4,5-dihydro-1H-pyrazol-1-yl)-4-methylthiazol-5-yl)ethan-1-one] | ≥ 50 |  | 
17 | 140 to 143 | COc1ccc(C2CC(c3ccc(OC)c(OC)c3)=NN2c2nc(-c3ccc(F)cc3)cs2)cc1 (stereo not drawn) [Compound 6g, 2-(3-(3,4-Dimethoxyphenyl)-5-(4-methoxyphenyl)-4,5-dihydro-1H-pyrazol-1-yl)-4-(4-fluorophenyl)thiazole] | 24.5 ± 1.01 | 15.4 ± 0.79 | 
18 | 235 to 238 | COc1ccc(C2=NN(c3nc(C)c(C(C)=O)s3)C(c3ccccc3)C2)cc1OC (stereo not drawn) [Compound 9a, 1-(2-(3-(3,4-Dimethoxyphenyl)-5-phenyl-4,5-dihydro-1H-pyrazol-1-yl)-4-methylthiazol-5-yl)ethan-1-one] | 18.9 ± 1.09 | 34.2 ± 1.68 | 
19 | 169 to 171 | CCOC(=O)c1sc(N2N=C(c3ccc(OC)c(OC)c3)CC2c2ccc(OC)cc2)nc1C (stereo not drawn) [Compound 9e, Ethyl 2-(3-(3,4-Dimethoxyphenyl)-5-(4-methoxyphenyl)-4,5-dihydro-1H-pyrazol-1-yl)-4-methylthiazole-5-carboxylate] | 43.6 ± 1.85 | 18.9 ± 1.03 | 
20 | 197 to 200 | CCOC(=O)c1sc(N2N=C(c3ccc(OC)c(OC)c3)CC2c2ccc(Cl)cc2)nc1C (stereo not drawn) [Compound 9f, Ethyl 2-(5-(4-Chlorophenyl)-3-(3,4-dimethoxyphenyl)-4,5-dihydro-1H-pyrazol-1-yl)-4-methylthiazole-5-carboxylate] | ≥ 50 | 8.35 ± 0.29 | IC50 (EGFR Kinase): 0.051 ± 0.003 µM; IC50 (HER2 Kinase): 0.14 ± 0.006 µM
21 | 195 to 197 | COc1ccc(C2=NN(c3nc(-c4ccc(Cl)cc4)cs3)C(c3ccc(Cl)cc3)C2)cc1OC (stereo not drawn) [Compound 6l, 4-(4-Chlorophenyl)-2-(5-(4-chlorophenyl)-3-(3,4-dimethoxyphenyl)-4,5-dihydro-1H-pyrazol-1-yl)thiazole] | 35.7 ± 1.85 | 17.6 ± 0.97 | 
22 | 210 to 215 | COc1ccc(C2=NN(c3nc(-c4ccc(C)cc4)cs3)C(c3ccccc3)C2)cc1OC (stereo not drawn) [Compound 6b, 2-(3-(3,4-Dimethoxyphenyl)-5-phenyl-4,5-dihydro-1H-pyrazol-1-yl)-4-(p-tolyl)thiazole] | ≥ 50 | 13.4 ± 0.98 | 
23 | 195 to 198 | COc1ccc(C2=NN(c3nc(-c4ccc(Cl)cc4)cs3)C(c3ccccc3)C2)cc1OC (stereo not drawn) [Compound 6d, 4-(4-Chlorophenyl)-2-(3-(3,4-dimethoxyphenyl)-5-phenyl-4,5-dihydro-1H-pyrazol-1-yl)thiazole] | 45.2 ± 1.24 |  | 
24 | 150 to 152 | COc1ccc(C2CC(c3ccc(OC)c(OC)c3)=NN2c2nc(-c3ccc(C)cc3)cs2)cc1 (stereo not drawn) [Compound 6f, 2-(3-(3,4-Dimethoxyphenyl)-5-(4-methoxyphenyl)-4,5-dihydro-1H-pyrazol-1-yl)-4-(p-tolyl)thiazole] | 35.4 ± 1.84 | 11.1 ± 0.85 | IC50 (EGFR Kinase): 0.23 ± 0.024 µM; IC50 (HER2 Kinase): 0.12 ± 0.025 µM
25 | 149 to 151 | COc1ccc(C2CC(c3ccc(OC)c(OC)c3)=NN2c2nc(-c3ccc(Cl)cc3)cs2)cc1 (stereo not drawn) [Compound 6h, 4-(4-Chlorophenyl)-2-(3-(3,4-dimethoxyphenyl)-5-(4-methoxyphenyl)-4,5-dihydro-1H-pyrazol-1-yl)thiazole] | 26.5 ± 1.59 | 35.2 ± 1.27 | 
